Data set [1] is described as follows: Ethylene oxide sterilization instability of paclitaxel-niacinamide formulations. As to conditions: additive formulated with paclitaxel as solid coating.
Data set [2] can be described thus: Ethylene oxide stability of cast paclitaxel-excipient films. Particulars: mean of N = 3. The format is physicochemical.
Experimental: Approximately 30 mg of excipient was weighed into a 7 mL glass vial and 6 mL of 75/25 v/v acetone/water was added. A small stirrer bar was added to each vial and all samples were stirred overnight at room temperature to ensure full dissolution. Next, a stock solution of paclitaxel in the casting solvent was made at 5 mg/mL. A specific volume of paclitaxel stock and excipient stock was added to a new vial to achieve the target paclitaxel/excipient weight fraction listed in Table 6. The vials were then mixed and aliquoted to N=6 of the 20 mL vials (0.5 mL each). A paclitaxel-only control was also added to N=6 vials (0.25 mL each). All vials were left in a fume hood overnight to evaporate the solvents. After drying, the samples were capped with cellulose membranes cut to septa size to allow ethylene oxide and moisture permeability. All samples were packaged in breathable polyethylene pouches. N=3 of each paclitaxel/excipient mixture were kept as non-sterilized controls, and the remainder (N=3) were sent for ethylene oxide sterilization (see Test Method D). Non-sterilized controls were stored at room temperature prior to analysis. Paclitaxel content analysis was performed as described in the Evaluation Methods section. Percent paclitaxel recovery was calculated by normalizing to either theoretical initial loading or pre-sterilized samples.
For data set [3] the following is noted: acetone, ethanol and aqueous mixtures thereof. From the text: As discussed in further detail below, coatings of the invention can be prepared by pipetting a solution containing therapeutic agent and excipient onto the device to be coated. […] Thus, in one embodiment the organic additive is not thiamine-HCl.
Data set [4] can be described thus: Early experiments on stability of organic additive in solution. The format is physicochemical. From the text: Thus, vanillin is not suitable as an organic additive for the present invention.

Results on four molecules are retold here after patent US20170360991A1, “DRUG COMPOSITION AND COATING” (W. L. GORE & ASSOCIATES, INC., priority 2015, published 2017).

Counter-ions that a name gives are not always drawn.

Regarding `O=C([O-])c1ccccc1O.[Na+]` [sodium salicylate], the “paclitaxel degradation on ethylene oxide sterilization” value in data set [1] was “cause degradation of the paclitaxel”. Consider `CC(=O)O[C@H]1C(=O)[C@@]2(C)[C@H]([C@H](OC(=O)c3ccccc3)[C@]3(O)C[C@H](OC(=O)[C@H](O)[C@@H](NC(=O)c4ccccc4)c4ccccc4)C(C)=C1C3(C)C)[C@]1(OC(C)=O)CO[C@@H]1C[C@@H]2O` [PTX only, paclitaxel], for which the “% PTX recovery, pre vs. post” value in data set [2] (cast formulations post ethylene oxide sterilization, normalized to pre-sterilized samples) is 101.7%. Also, in data set [2] (cast formulations pre-sterilization, normalized to theoretical loading), the “% PTX recovery, theoretical vs. pre” value amounted to 98.2%. For `Cc1ncc(C[n+]2csc(CCO)c2C)c(N)n1` [thiamine-HCl], the “solubility” value in data set [3] is “poor solubility”.

As to `COc1cc(C=O)ccc1O` [vanillin], in data set [4], the “stability in solution” value is reported as “easily degraded in solution”.
